Consider two compounds from ChEMBL document CHEMBL4387741, “Optimization of novel reversible Bruton's tyrosine kinase inhibitors identified using Tethering-fragment-based screens” (Bioorg Med Chem, 2019).

Data set [1] has as its target Cyclin-dependent kinase 19 (Homo sapiens) (UniProt Q9BWU1). Kind of data set: Inhibition of wild-type human partial length CDK11 (M1 to N360 residues) expressed in bacterial expression system at 10 uM by Kinomescan method relative to control.
The target of data set [2] is Serine/threonine-protein kinase Chk2 (Homo sapiens) (UniProt O96017). Kind of data set: Inhibition of wild-type human partial length CHEK2 (S253 to E574 residues) expressed in bacterial expression system at 10 uM by Kinomescan method relative to control.
The target of data set [3] is Casein kinase I isoform alpha-like (Homo sapiens) (UniProt Q8N752). Kind of data set: Inhibition of wild-type human full length CSNK1A1L (M1 to N337 residues) expressed in bacterial expression system at 10 uM by Kinomescan method relative to control.
Data set [4] addresses Receptor tyrosine-protein kinase erbB-3 (Homo sapiens) (UniProt P21860). Kind of data set: Inhibition of wild-type human partial length ERBB3 (G684 to A987 residues) expressed in mammalian expression system at 10 uM by Kinomescan method relative to control.
In data set [5] the test system is Receptor-type tyrosine-protein kinase FLT3 (Homo sapiens), P36888 [D835H]. Kind of data set: Inhibition of human partial length FLT3 D835H mutant (V592 to Y969 residues) expressed in bacterial expression system at 10 uM by Kinomescan method relative to control.
For data set [6], the system named is Receptor-type tyrosine-protein kinase FLT3 (Homo sapiens), P36888 [UNDEFINED MUTATION]. As to the kind of experiment: Inhibition of human partial length FLT3 ITD/D835V double mutant expressed in bacterial expression system at 10 uM by Kinomescan method relative to control.
Data set [7] addresses Mitogen-activated protein kinase 8 (Homo sapiens) (UniProt P45983). As to the kind of experiment: Inhibition of wild-type human full length JNK1 (M1 to Q384 residues) expressed in mammalian expression system at 10 uM by Kinomescan method relative to control.
Data set [8] deals with Serine/threonine-protein kinase MARK1 (Homo sapiens) (UniProt Q9P0L2). Kind of data set: Inhibition of wild-type human partial length MARK1 (Q30 to T341 residues) expressed in bacterial expression system at 10 uM by Kinomescan method relative to control.
For data set [9], the target named is Serine/threonine-protein kinase Nek3 (Homo sapiens) (UniProt P51956). Kind of data set: Inhibition of wild-type human full length NEK3 (M1 to R506 residues) expressed in mammalian expression system at 10 uM by Kinomescan method relative to control.
The target in data set [10] is Serine/threonine-protein kinase TAO3 (Homo sapiens) (UniProt Q9H2K8). As to the kind of experiment: Inhibition of wild-type human partial length TAOK3 (M1 to T316 residues) expressed in mammalian expression system at 10 uM by Kinomescan method relative to control.
Data set [11] addresses Serine/threonine-protein kinase TNNI3K (Homo sapiens) (UniProt Q59H18). Kind of data set: Inhibition of wild-type human full length TNNI3K (M1 to S835 residues) expressed in bacterial expression system at 10 uM by Kinomescan method relative to control.
Data set [12] deals with Serine/threonine-protein kinase ULK3 (Homo sapiens) (UniProt Q6PHR2). Kind of data set: Inhibition of wild-type human partial length ULK3 (M1 to Q290 residues) expressed in mammalian expression system at 10 uM by Kinomescan method relative to control.
In data set [13] the target is Activin receptor type-1 (Homo sapiens) (UniProt Q04771). Kind of data set: Inhibition of wild-type human ACVR1 (C188 to C509 residues) expressed in bacterial expression system at 1 uM by Kinomescan method relative to control.
The target of data set [14] is Cyclin-dependent kinase 8 (Homo sapiens) (UniProt P49336). Kind of data set: Inhibition of wild-type human partial length CDK8 (M1 to T360 residues) expressed in bacterial expression system at 1 uM by Kinomescan method relative to control.
For data set [15], the target named is Mitogen-activated protein kinase 3 (Homo sapiens) (UniProt P27361). Kind of data set: Inhibition of wild-type human full length ERK1 (M1 to P379 residues) expressed in bacterial expression system at 1 uM by Kinomescan method relative to control.
Data set [16] addresses Fibroblast growth factor receptor 3 (Homo sapiens) (UniProt P22607). Kind of data set: Inhibition of wild-type human partial length FGFR3 (R442 to S771 residues) expressed in bacterial expression system at 1 uM by Kinomescan method relative to control.
The test system of data set [17] is Receptor-type tyrosine-protein kinase FLT3 (Homo sapiens), P36888 [UNDEFINED MUTATION]. As to the kind of experiment: Inhibition of human partial length FLT3 ITD/F691L double mutant expressed in bacterial expression system at 1 uM by Kinomescan method relative to control.
Data set [18] deals with Receptor-type tyrosine-protein kinase FLT3 (Homo sapiens), P36888 [R834Q]. Kind of data set: Inhibition of human partial length FLT3 R834Q mutant (V592 to Y969 residues) expressed in mammalian expression system at 1 uM by Kinomescan method relative to control.
The target of data set [19] is Interleukin-1 receptor-associated kinase 3 (Homo sapiens) (UniProt Q9Y616). Kind of data set: Inhibition of wild-type human partial length IRAK3 (V147 to E596 residues) expressed in bacterial expression system at 1 uM by Kinomescan method relative to control.
Data set [20] concerns the target Serine/threonine-protein kinase MARK1 (Homo sapiens) (UniProt Q9P0L2). Kind of data set: Inhibition of wild-type human partial length MARK1 (Q30 to T341 residues) expressed in bacterial expression system at 1 uM by Kinomescan method relative to control.
In data set [21] the target is Serine/threonine-protein kinase Nek11 (Homo sapiens) (UniProt Q8NG66). Kind of data set: Inhibition of wild-type human partial length NEK11 (M1 to E313 residues) expressed in mammalian expression system at 1 uM by Kinomescan method relative to control.
Data set [22] deals with Serine/threonine-protein kinase Nek2 (Homo sapiens) (UniProt P51955). As to the kind of experiment: Inhibition of wild-type human partial length NEK2 (M1 to K309 residues) expressed in bacterial expression system at 1 uM by Kinomescan method relative to control.
In data set [23] the target is Serine/threonine-protein kinase Nek7 (Homo sapiens) (UniProt Q8TDX7). As to the kind of experiment: Inhibition of wild-type human full length NEK7 (M1 to S302 residues) expressed in bacterial expression system at 1 uM by Kinomescan method relative to control.
The target in data set [24] is Serine/threonine-protein kinase NIM1 (Homo sapiens) (UniProt Q8IY84). Kind of data set: Inhibition of wild-type human partial length NIM1 (Q44 to N355 residues) expressed in mammalian expression system at 1 uM by Kinomescan method relative to control.
Data set [25] relates to Phosphatidylinositol 4,5-bisphosphate 3-kinase catalytic subunit alpha isoform (Homo sapiens), P42336 [E545K]. As to the kind of experiment: Inhibition of human partial length PIK3CA E545K mutant (R108 to N1068 residues) expressed in mammalian expression system at 1 uM by Kinomescan method relative to control.
Data set [26] addresses Receptor-interacting serine/threonine-protein kinase 2 (Homo sapiens) (UniProt O43353). As to the kind of experiment: Inhibition of wild-type human partial length RIPK2 (M1 to K310 residues) expressed in bacterial expression system at 1 uM by Kinomescan method relative to control.
Data set [27] has as its target Angiopoietin-1 receptor (Homo sapiens) (UniProt Q02763). As to the kind of experiment: Inhibition of wild-type human partial length TIE2 (N804 to T1112 residues) expressed in bacterial expression system at 1 uM by Kinomescan method relative to control.
Data set [28] in a line: Terminal half-life in Sprague-Dawley rat at 1 mg/kg, iv. The format is ADME, organism-based. To be noted: in vivo, read-out: beta t1/2 (converted).

Serine/threonine-protein kinase MARK1 (Homo sapiens), sequence (Q9P0L2 whole entry, looked up, the tested form may be a part): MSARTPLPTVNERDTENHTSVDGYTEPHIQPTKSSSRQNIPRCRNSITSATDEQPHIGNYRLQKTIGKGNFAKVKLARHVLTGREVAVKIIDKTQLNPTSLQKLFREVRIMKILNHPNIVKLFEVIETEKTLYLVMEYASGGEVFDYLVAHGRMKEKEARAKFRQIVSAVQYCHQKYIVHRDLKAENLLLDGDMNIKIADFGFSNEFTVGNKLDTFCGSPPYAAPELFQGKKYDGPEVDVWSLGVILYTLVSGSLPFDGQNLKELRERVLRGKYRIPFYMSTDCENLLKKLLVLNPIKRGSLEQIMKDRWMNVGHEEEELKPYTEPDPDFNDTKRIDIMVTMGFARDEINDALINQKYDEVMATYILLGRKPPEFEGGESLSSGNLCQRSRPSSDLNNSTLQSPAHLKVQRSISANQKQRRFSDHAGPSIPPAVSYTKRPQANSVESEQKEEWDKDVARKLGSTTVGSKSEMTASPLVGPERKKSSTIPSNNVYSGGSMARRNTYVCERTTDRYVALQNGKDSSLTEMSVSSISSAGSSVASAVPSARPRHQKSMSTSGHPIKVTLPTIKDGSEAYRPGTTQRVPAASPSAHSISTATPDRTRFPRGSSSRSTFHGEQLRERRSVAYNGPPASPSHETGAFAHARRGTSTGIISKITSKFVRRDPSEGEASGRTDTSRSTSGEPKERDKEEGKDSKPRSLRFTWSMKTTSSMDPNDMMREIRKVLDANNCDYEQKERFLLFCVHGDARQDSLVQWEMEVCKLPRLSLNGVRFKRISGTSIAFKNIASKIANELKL
Serine/threonine-protein kinase ULK3 (Homo sapiens), sequence (Q6PHR2 whole entry, the tested form may be a part): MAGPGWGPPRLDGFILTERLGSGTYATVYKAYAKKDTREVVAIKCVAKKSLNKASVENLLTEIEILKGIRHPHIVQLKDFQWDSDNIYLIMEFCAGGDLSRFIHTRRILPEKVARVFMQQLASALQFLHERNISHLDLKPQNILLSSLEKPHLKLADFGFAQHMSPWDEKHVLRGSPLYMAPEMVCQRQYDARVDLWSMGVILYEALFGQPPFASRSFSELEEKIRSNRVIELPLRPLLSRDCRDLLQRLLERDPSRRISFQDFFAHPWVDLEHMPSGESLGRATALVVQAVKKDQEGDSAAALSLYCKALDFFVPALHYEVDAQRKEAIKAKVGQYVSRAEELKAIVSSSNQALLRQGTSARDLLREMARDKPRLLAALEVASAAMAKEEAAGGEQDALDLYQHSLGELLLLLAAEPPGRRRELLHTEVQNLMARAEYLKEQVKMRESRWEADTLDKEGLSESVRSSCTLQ
Casein kinase I isoform alpha-like (Homo sapiens), sequence (Q8N752 whole entry, the tested form may be a part, canonical isoform): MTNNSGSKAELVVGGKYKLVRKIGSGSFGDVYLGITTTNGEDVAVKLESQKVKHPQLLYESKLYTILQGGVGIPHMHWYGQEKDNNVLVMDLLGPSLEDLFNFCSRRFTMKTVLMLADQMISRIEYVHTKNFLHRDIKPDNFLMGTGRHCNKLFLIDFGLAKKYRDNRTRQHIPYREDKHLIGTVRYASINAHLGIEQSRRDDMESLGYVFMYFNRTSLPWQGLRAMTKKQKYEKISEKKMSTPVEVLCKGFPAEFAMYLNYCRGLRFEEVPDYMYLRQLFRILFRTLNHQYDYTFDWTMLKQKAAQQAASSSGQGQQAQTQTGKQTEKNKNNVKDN
Serine/threonine-protein kinase NIM1 (Homo sapiens), sequence (Q8IY84 whole entry, the tested form may be a part, canonical isoform): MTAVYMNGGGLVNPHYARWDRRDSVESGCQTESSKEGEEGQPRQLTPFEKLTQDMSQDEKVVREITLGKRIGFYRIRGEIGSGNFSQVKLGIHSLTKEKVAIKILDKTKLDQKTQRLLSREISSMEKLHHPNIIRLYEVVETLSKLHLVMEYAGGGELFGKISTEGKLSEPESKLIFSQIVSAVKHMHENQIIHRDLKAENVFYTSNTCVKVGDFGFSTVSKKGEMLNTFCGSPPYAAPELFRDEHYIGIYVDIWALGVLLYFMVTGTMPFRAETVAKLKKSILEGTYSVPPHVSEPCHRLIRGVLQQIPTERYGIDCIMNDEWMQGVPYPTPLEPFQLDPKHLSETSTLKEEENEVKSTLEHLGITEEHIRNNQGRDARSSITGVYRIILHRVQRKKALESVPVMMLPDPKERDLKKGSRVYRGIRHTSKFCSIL
Cyclin-dependent kinase 19 (Homo sapiens), sequence (Q9BWU1 whole entry, the tested form may be a part): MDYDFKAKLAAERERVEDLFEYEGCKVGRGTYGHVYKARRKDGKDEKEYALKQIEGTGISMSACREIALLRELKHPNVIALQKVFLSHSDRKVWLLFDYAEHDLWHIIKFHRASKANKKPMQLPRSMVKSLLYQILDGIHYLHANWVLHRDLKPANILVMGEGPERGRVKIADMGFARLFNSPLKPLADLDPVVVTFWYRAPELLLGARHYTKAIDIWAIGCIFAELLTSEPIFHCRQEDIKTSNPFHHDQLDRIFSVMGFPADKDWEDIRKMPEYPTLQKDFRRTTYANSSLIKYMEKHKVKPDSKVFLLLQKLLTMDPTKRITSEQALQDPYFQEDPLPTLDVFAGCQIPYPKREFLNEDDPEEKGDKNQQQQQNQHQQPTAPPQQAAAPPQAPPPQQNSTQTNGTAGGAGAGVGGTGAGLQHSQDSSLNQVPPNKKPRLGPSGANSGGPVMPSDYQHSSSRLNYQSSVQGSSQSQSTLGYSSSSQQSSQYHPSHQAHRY
Serine/threonine-protein kinase TNNI3K (Homo sapiens), sequence (Q59H18 whole entry, the tested form may be a part): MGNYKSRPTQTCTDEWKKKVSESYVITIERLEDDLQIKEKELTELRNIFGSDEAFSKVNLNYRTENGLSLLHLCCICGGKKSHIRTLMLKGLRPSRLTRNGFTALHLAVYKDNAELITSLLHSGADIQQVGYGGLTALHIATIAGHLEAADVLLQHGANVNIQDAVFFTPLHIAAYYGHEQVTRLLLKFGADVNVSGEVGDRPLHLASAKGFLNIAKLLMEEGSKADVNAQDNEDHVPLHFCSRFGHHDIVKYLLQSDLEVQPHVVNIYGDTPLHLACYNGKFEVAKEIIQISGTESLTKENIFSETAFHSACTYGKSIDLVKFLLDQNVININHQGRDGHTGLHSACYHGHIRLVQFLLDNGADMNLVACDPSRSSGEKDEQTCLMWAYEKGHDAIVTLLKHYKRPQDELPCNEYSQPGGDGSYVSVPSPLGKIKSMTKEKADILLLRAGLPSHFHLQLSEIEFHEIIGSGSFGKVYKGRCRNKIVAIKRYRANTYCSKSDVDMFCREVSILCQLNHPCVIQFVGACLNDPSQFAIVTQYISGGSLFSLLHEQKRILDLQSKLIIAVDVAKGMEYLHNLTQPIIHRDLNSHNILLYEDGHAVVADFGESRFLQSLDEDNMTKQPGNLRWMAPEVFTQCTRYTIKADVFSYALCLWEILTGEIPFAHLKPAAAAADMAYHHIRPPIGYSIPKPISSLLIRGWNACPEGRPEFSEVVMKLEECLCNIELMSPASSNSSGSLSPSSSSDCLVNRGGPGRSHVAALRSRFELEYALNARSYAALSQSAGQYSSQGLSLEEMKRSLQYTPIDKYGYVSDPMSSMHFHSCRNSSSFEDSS
Interleukin-1 receptor-associated kinase 3 (Homo sapiens), sequence (Q9Y616 whole entry, the tested form may be a part): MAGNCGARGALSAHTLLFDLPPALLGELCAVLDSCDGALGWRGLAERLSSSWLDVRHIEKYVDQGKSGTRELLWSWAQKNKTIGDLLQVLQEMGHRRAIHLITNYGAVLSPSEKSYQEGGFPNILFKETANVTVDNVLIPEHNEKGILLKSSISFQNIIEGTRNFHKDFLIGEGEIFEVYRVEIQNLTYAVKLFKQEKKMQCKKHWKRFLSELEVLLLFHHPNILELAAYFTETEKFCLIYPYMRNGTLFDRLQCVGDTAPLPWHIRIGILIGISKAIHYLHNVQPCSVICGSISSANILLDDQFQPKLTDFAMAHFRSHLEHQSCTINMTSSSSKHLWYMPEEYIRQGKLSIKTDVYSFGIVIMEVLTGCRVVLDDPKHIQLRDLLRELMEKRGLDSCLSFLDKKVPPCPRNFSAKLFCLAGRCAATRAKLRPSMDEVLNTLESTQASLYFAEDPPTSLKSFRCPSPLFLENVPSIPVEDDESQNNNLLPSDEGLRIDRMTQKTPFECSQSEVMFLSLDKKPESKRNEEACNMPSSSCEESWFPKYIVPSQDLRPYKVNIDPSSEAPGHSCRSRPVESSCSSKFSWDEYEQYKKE
Serine/threonine-protein kinase Nek7 (Homo sapiens), sequence (Q8TDX7 whole entry, looked up, the tested form may be a part): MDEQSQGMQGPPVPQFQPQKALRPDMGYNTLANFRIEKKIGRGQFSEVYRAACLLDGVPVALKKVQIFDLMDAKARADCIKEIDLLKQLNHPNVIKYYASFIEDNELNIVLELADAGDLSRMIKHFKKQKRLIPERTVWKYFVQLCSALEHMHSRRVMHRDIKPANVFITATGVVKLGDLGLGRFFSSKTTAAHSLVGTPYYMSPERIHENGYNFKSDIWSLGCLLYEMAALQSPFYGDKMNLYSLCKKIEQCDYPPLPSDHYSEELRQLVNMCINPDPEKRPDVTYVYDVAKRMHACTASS
Serine/threonine-protein kinase Chk2 (Homo sapiens), sequence (O96017 whole entry, the tested form may be a part, canonical isoform): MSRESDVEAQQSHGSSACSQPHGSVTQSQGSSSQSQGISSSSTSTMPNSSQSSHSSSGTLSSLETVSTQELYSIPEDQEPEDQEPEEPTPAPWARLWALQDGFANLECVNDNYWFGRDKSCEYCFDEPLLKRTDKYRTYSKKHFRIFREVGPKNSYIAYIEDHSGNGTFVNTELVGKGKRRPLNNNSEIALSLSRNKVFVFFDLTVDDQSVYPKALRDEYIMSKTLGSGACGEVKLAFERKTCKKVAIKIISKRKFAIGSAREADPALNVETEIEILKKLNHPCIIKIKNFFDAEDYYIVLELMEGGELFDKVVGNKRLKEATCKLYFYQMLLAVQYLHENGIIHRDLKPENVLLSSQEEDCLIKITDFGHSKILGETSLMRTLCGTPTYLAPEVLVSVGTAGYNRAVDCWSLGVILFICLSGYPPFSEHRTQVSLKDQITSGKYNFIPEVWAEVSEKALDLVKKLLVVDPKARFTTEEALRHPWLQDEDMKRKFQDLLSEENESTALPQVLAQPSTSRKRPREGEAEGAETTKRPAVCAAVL

For orientation: inhibition means the share of the control response that was lost under treatment. Low values mean a response near the control, high ones a response far below the control. On to `O=C(Nc1cccc([C@H]2CCCN(c3ncnc4[nH]ccc34)C2)c1)Nc1ccccc1N1CCCC1`, for which the inhibition was found to be 37% in [1]; 47% in data set [2]; 100% in data set [3]; 72% in data set [4]; 1.3% in data set [5]; 8.3% in [6]. Also, the inhibition worked out at 42% in data set [7]; 81% in data set [8]; 59% in data set [9]; 79% in data set [10]; 100% in [11]; 6.2% in data set [12].

On to `O=C(Nc1cccc([C@@H]2CN(c3ncnc4[nH]ccc34)CCN2CCO)c1)Nc1c(F)cccc1N1CCCC1`, for which the inhibition in [13] came out at 100%; in [14], 84%; in data set [15], 100%; in data set [16] it was 83%; in data set [17] it was 4.6%; in [18], 47%. The inhibition in data set [19] came out at 100%; in [20], 97%; in data set [21], 86%; in data set [22], 100%; in data set [23] it was 92%; in [24] it was 93%. The inhibition in [25] stood at 56%; in data set [26], 100%; in data set [27], 99%. Also, the half-life in data set [28] was 2.5 h.
